Measured values as given in ChEMBL document CHEMBL2440099, “N-Alkyl dien- and trienamides from the roots of Otanthus maritimus with binding affinity for opioid and cannabinoid receptors” (Bioorg Med Chem, 2013).

Tests used:
Mus musculus [1] = species: Mus musculus; assay: Selectivity ratio of Ki for delta opioid receptor in CD1 mouse brain membranes to Ki for mu opioid receptor in CD1 mouse brain membranes; type: cell membranes
[2] = molecular target: Delta-type opioid receptor (Mus musculus, UniProt P32300); assay: Displacement of [3H]DPDPE from delta opioid receptor in CD1 mouse brain membranes after 1 hr by liquid scintillation counting; type: cell membranes, Membrane
Cannabinoid receptor 1 = Cannabinoid receptor 1 (Mus musculus, UniProt P47746); assay: Displacement of [3H]-CP-55940 from cannabinoid CB1 receptor in CD1 mouse brain membranes after 1 hr by liquid scintillation counting; type: cell membranes, Membrane
Mu-type opioid receptor = Mu-type opioid receptor (Mus musculus, UniProt P42866); assay: Displacement of [3H]DAMGO from mu opioid receptor in CD1 mouse brain membranes after 1 hr by liquid scintillation counting; type: cell membranes, Membrane
Mus musculus [3] = species: Mus musculus; assay: Selectivity ratio of Ki for cannabinoid CB1 receptor in CD1 mouse brain membranes to Ki for cannabinoid CB2 receptor in CD1 mouse spleen membranes; type: cell membranes
Cannabinoid receptor 2 = Cannabinoid receptor 2 (Mus musculus, UniProt P47936); assay: Displacement of [3H]-CP-55940 from cannabinoid CB2 receptor in CD1 mouse spleen membranes after 1 hr by liquid scintillation counting; type: cell membranes, Membrane

Row | SMILES | Ratio Ki (Mus musculus [1]) | Ki [2] [µM] | Ki (Cannabinoid receptor 1) [µM] | Ki (Mu-type opioid receptor) [µM] | Ratio Ki (Mus musculus [3]) | Ki (Cannabinoid receptor 2) [µM]
1 | CCCCC/C=C\CC/C=C/C=C/C(=O)NCC(C)C | 1.03 | 7.7 | 1.2 | 7.5 | 2.18 | 0.55
2 | CCCCCCCCC/C=C/C=C/C(=O)N1CCCCC1 | 1.13 | 6.5 | 6.7 | 5.75 | 0.28 | 24
3 | CC(C)CCNC(=O)/C=C/C=C/C=C/c1cccs1 | 3.27 | 26.5 | 2.2 | 8.1 | 0.44 | 5
4 | CCCCCCC/C=C/C=C/C(=O)NCC(C)C | 5.24 | 43 | 2.6 | 8.2 | 2.89 | 0.9
5 | CCCCCCCCC/C=C/C=C/C(=O)NCC(C)C | 0.44 | 22.5 | 1.4 | 51 | 1.2 | 1.17
6 | CC(C)CC(=O)OC/C=C\CCNC(=O)/C=C/C=C/C=C/c1cccs1 | 0.27 | 11 | 5.6 | 41.5 | 0.55 | 10.2
7 | O=C(/C=C/C=C/C=C/c1cccs1)N1CCCCC1 | 0.63 | 8 | 4.1 | 12.8 | 3.3 | 1.24
8 | COc1cc([C@@H]2Oc3c(OC)cc(/C=C/C=O)cc3[C@H]2COC(=O)CC(C)C)ccc1O | 0.42 | 3.8 | 2.7 | 9 | 0.64 | 4.2
9 | O=C(/C=C/C=C/C=C/c1cccs1)N1C=CCCC1 | 0.4 | 11.5 | > 50 | 29 | – | 13.5
10 | CCCCC/C=C\CC/C=C/C=C/C(=O)N1CCCCC1 | 0.51 | 3.8 | 0.8 | 7.4 | 5 | 0.16
11 | C=CC1OC1/C=C/C#CC#CC#CC (centres undefined) | – | > 50 | > 50 | > 50 | – | > 50
12 | CC(C)CNC(=O)/C=C/C=C/C=C/c1cccs1 | 0.49 | 25.5 | 8.8 | 52 | 1.07 | 8.25
